# Test system: rat vagina
# Assay: Intravaginal DHEA suppository: vaginal epithelium morphology in OVX rats (Example 3)
# Type: in vivo
# Conditions: 14 days
# Text: The animals were housed individually and were allowed free access to water and rodent food (Lab Diet 5002, Ralston Purina, St-Louis, Mo.).
# The insertion into the vagina of one suppository began on day 5 of the study and was continued once daily until day 18 of the study, for a total of 14 days of treatment. The suppository was gently placed in the vaginal opening and then delicately pushed about 2-3 mm inside the vagina with the help of a small, smooth glass stick, disinfected in 70% alcohol and dried between each animal.
# Vagina—including the urethra—and uterus were collected, and then trimmed as described below. For further analysis, two pieces of inguinal mammary gland were sampled, as well as a square piece of about 2 X 2 cm of shaved dorsal skin, the latter being put and gently flattened on a piece of carton.
# Any other lipophilic base such as Fattibase, Wecobee, cocoa butter, theobroma oil or other combinations of Whitepsol bases could also be used. […] The proper amount of suppository base pellets to weight in order to obtain the final volume needed was calculated based on the previously measured density of the suppository base, which was 47.5 mg per 50 μl. The suppository base was put in a small beaker, melted in microwave at power 50% for about 3 min and 30 sec and then transferred on a heating plate, which was adjusted at the lowest power in order to keep the suppository base at a temperature of 50±3° C. […] These moulds were made from microcentrifuge tubes, each of them previously calibrated with 50 μl of water and cut at the level of the line drawn at the water surface. After 30 min of cooling at room temperature, the suppositories were put at 4° C. for another 30 min. Finally, the excess of base was trimmed with a razor blade and the suppositories were removed from their moulds and stored in closed glass bottles at 4° C. until use. They were allowed to reach room temperature before being applied to the animals.
# The organs were immersed in 10% neutral buffered formalin immediately after resection. Each vagina and uterus was divided into 8 equal cross-segments and 4 cross-segments including two from the cervix and two from each of the two proximal and distal horns, respectively. The segments were then routinely processed and embedded all together in the same paraffin block.
# Segment 6 represented the deeper vaginal mucosa and is separated from the uterine cervix by only one segment.
smiles,measurement,setting,value
"C[C@]12CC[C@H](O)CC1=CC[C@@H]1[C@@H]2CC[C@]2(C)C(=O)CC[C@@H]12 [DHEA, dehydroepiandrosterone]",vaginal epithelium thickness,"DHEA 0.33 mg/suppository intravaginal, segment 6",2-5 cell layers
same,animals displaying mild inflammation,"DHEA 0.33 mg/suppository, unevenly distributed over the whole vagina",four
same,animals displaying mild inflammation,"DHEA 0.66 mg/suppository, three external segments",two
same,animals displaying mild inflammation,"DHEA 1.00 mg/suppository, four external segments",four
